# Assays:
# Experiment in all cases: relative viability (nuclei count vs DMSO), 5 days (fraction); higher = more cells survive
# 201T = system: 201T
# In short: (§1)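 After 5 days of treatment, lung cancer cells in 1536-well plates were fixed and stained in a single step (final 0.05% Triton X-100, 1% formaldehyde, 1 ug/ml Hoechst) and their nuclei counted on 4× images. Treatment had been applied by pin tool the day after seeding as one drug alone or as a fixed anchor-drug dose with five library-drug doses (not always all listed) in √10 steps. Relative viability is the nuclei count of treated wells divided by that of vehicle wells, and values are medians of duplicate plates.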
# COR-L23 = system: COR-L23
# In short: as §1
# EPLC-272H = system: EPLC-272H
# In short: as §1
# H3255 = system: H3255
# In short: as §1
# HCC-44 = system: HCC-44
# In short: as §1
# LOU-NH91 = system: LOU-NH91
# In short: as §1
# NCI-H1650 = system: NCI-H1650
# In short: as §1
# NCI-H1734 = system: NCI-H1734
# In short: as §1
# NCI-H1793 = system: NCI-H1793
# In short: as §1
# NCI-H1993 = system: NCI-H1993
# In short: as §1
# NCI-H2023 = system: NCI-H2023
# In short: as §1
# NCI-H2085 = system: NCI-H2085
# In short: as §1
# NCI-H2170 = system: NCI-H2170
# In short: as §1
# NCI-H2347 = system: NCI-H2347
# In short: as §1
# NCI-H2405 = system: NCI-H2405
# In short: as §1
# NCI-H3122 = system: NCI-H3122
# In short: as §1
# NCI-H441 = system: NCI-H441
# In short: as §1
# NCI-H520 = system: NCI-H520
# In short: as §1
# NCI-H647 = system: NCI-H647
# In short: as §1
# PC-14 = system: PC-14
# In short: as §1
# RERF-LC-KJ = system: RERF-LC-KJ
# In short: as §1
# SW 900 = system: SW 900
# In short: as §1
smiles,measurement,setting,value
NC(=O)Nc1cc(-c2cccc(F)c2)sc1C(=O)N[C@H]1CCCNC1 [AZD7762] + CC(=O)Nc1cccc(-n2c(=O)n(C3CC3)c(=O)c3c(Nc4ccc(I)cc4F)n(C)c(=O)c(C)c32)c1 [Trametinib] (partner 0.02 µM),relative viability,201T; first compound 0.01 µM,0.718
same,relative viability,201T; first compound 0.03162 µM,0.749
same,relative viability,201T; first compound 0.1 µM,0.763
same,relative viability,201T; first compound 0.3162 µM,0.724
same,relative viability,201T; first compound 1 µM,0.852
same,relative viability,COR-L23; first compound 0.01 µM,0.702
same,relative viability,COR-L23; first compound 0.03162 µM,0.623
same,relative viability,COR-L23; first compound 0.1 µM,0.518
same,relative viability,COR-L23; first compound 0.3162 µM,0.319
same,relative viability,COR-L23; first compound 1 µM,0.119
same,relative viability,EPLC-272H; first compound 0.01 µM,0.28
same,relative viability,EPLC-272H; first compound 0.03162 µM,0.297
same,relative viability,EPLC-272H; first compound 0.1 µM,0.277
same,relative viability,EPLC-272H; first compound 0.3162 µM,0.293
same,relative viability,EPLC-272H; first compound 1 µM,0.227
same,relative viability,H3255; first compound 0.01 µM,0.71
same,relative viability,H3255; first compound 0.03162 µM,0.72
same,relative viability,H3255; first compound 0.1 µM,0.698
same,relative viability,H3255; first compound 0.3162 µM,0.618
same,relative viability,H3255; first compound 1 µM,0.682
same,relative viability,HCC-44; first compound 0.01 µM,1.13
same,relative viability,HCC-44; first compound 0.03162 µM,1.04
same,relative viability,HCC-44; first compound 0.1 µM,1.12
same,relative viability,HCC-44; first compound 0.3162 µM,1.15
same,relative viability,HCC-44; first compound 1 µM,1.16
same,relative viability,LOU-NH91; first compound 0.01 µM,0.78
same,relative viability,LOU-NH91; first compound 0.03162 µM,0.793
same,relative viability,LOU-NH91; first compound 0.1 µM,0.761
same,relative viability,LOU-NH91; first compound 0.3162 µM,0.66
same,relative viability,LOU-NH91; first compound 1 µM,0.67
same,relative viability,NCI-H1650; first compound 0.01 µM,0.65
same,relative viability,NCI-H1650; first compound 0.03162 µM,0.659
same,relative viability,NCI-H1650; first compound 0.1 µM,0.631
same,relative viability,NCI-H1650; first compound 0.3162 µM,0.532
same,relative viability,NCI-H1650; first compound 1 µM,0.209
same,relative viability,NCI-H1734; first compound 0.01 µM,0.761
same,relative viability,NCI-H1734; first compound 0.03162 µM,0.683
same,relative viability,NCI-H1734; first compound 0.1 µM,0.812
same,relative viability,NCI-H1734; first compound 0.3162 µM,0.641
same,relative viability,NCI-H1734; first compound 1 µM,0.562
same,relative viability,NCI-H1793; first compound 0.01 µM,0.469
same,relative viability,NCI-H1793; first compound 0.03162 µM,0.485
same,relative viability,NCI-H1793; first compound 0.1 µM,0.456
same,relative viability,NCI-H1793; first compound 0.3162 µM,0.446
same,relative viability,NCI-H1793; first compound 1 µM,0.381
same,relative viability,NCI-H1993; first compound 0.01 µM,0.458
same,relative viability,NCI-H1993; first compound 0.03162 µM,0.482
same,relative viability,NCI-H1993; first compound 0.1 µM,0.605
same,relative viability,NCI-H1993; first compound 0.3162 µM,0.674
same,relative viability,NCI-H1993; first compound 1 µM,0.536
same,relative viability,NCI-H2023; first compound 0.01 µM,0.596
same,relative viability,NCI-H2023; first compound 0.03162 µM,0.46
same,relative viability,NCI-H2023; first compound 0.1 µM,0.293
same,relative viability,NCI-H2023; first compound 0.3162 µM,0.156
same,relative viability,NCI-H2023; first compound 1 µM,0.132
same,relative viability,NCI-H2085; first compound 0.01 µM,0.514
same,relative viability,NCI-H2085; first compound 0.03162 µM,0.559
same,relative viability,NCI-H2085; first compound 0.1 µM,0.632
same,relative viability,NCI-H2085; first compound 0.3162 µM,0.713
same,relative viability,NCI-H2085; first compound 1 µM,0.357
same,relative viability,NCI-H2170; first compound 0.01 µM,0.935
same,relative viability,NCI-H2170; first compound 0.03162 µM,0.939
same,relative viability,NCI-H2170; first compound 0.1 µM,0.945
same,relative viability,NCI-H2170; first compound 0.3162 µM,0.951
same,relative viability,NCI-H2170; first compound 1 µM,0.914
same,relative viability,NCI-H2347; first compound 0.01 µM,0.313
same,relative viability,NCI-H2347; first compound 0.03162 µM,0.279
same,relative viability,NCI-H2347; first compound 0.1 µM,0.281
same,relative viability,NCI-H2347; first compound 0.3162 µM,0.287
same,relative viability,NCI-H2347; first compound 1 µM,0.305
same,relative viability,NCI-H2405; first compound 0.01 µM,0.744
same,relative viability,NCI-H2405; first compound 0.03162 µM,0.57
same,relative viability,NCI-H2405; first compound 0.1 µM,0.557
same,relative viability,NCI-H2405; first compound 0.3162 µM,0.631
same,relative viability,NCI-H2405; first compound 1 µM,0.347
same,relative viability,NCI-H3122; first compound 0.01 µM,0.22
same,relative viability,NCI-H3122; first compound 0.03162 µM,0.231
same,relative viability,NCI-H3122; first compound 0.1 µM,0.223
same,relative viability,NCI-H3122; first compound 0.3162 µM,0.243
same,relative viability,NCI-H3122; first compound 1 µM,0.27
same,relative viability,NCI-H441; first compound 0.01 µM,0.511
same,relative viability,NCI-H441; first compound 0.03162 µM,0.574
same,relative viability,NCI-H441; first compound 0.1 µM,0.543
same,relative viability,NCI-H441; first compound 0.3162 µM,0.517
same,relative viability,NCI-H441; first compound 1 µM,0.359
same,relative viability,NCI-H520; first compound 0.01 µM,0.713
same,relative viability,NCI-H520; first compound 0.03162 µM,0.702
same,relative viability,NCI-H520; first compound 0.1 µM,0.653
same,relative viability,NCI-H520; first compound 0.3162 µM,0.484
same,relative viability,NCI-H520; first compound 1 µM,0.194
same,relative viability,NCI-H647; first compound 0.01 µM,0.533
same,relative viability,NCI-H647; first compound 0.03162 µM,0.579
same,relative viability,NCI-H647; first compound 0.1 µM,0.456
same,relative viability,NCI-H647; first compound 0.3162 µM,0.384
same,relative viability,NCI-H647; first compound 1 µM,0.16
same,relative viability,PC-14; first compound 0.01 µM,0.802
same,relative viability,PC-14; first compound 0.03162 µM,0.832
same,relative viability,PC-14; first compound 0.1 µM,0.659
same,relative viability,PC-14; first compound 0.3162 µM,0.236
same,relative viability,PC-14; first compound 1 µM,0.0675
same,relative viability,RERF-LC-KJ; first compound 0.01 µM,0.878
same,relative viability,RERF-LC-KJ; first compound 0.03162 µM,0.888
same,relative viability,RERF-LC-KJ; first compound 0.1 µM,0.996
same,relative viability,RERF-LC-KJ; first compound 0.3162 µM,0.874
same,relative viability,RERF-LC-KJ; first compound 1 µM,0.693
same,relative viability,SW 900; first compound 0.01 µM,0.799
same,relative viability,SW 900; first compound 0.03162 µM,0.794
same,relative viability,SW 900; first compound 0.1 µM,0.721
same,relative viability,SW 900; first compound 0.3162 µM,0.862
same,relative viability,SW 900; first compound 1 µM,0.495

# Reference: the supplement of paper PMC10307832
